The values below come from patent US6365175B1 (Unilever Patent Holdings, priority 1998, dated 2002).

“Also recorded” adds a separate entry of the source.

The subject of one test is decorin. In words: Dot blot assay for decorin protein in dermal fibroblast conditioned medium. The format is cell-based, human. The conditions noted are these: for Decorin (% of control): fibroblasts, mean ± SD; for decorin levels in fibroblasts: single agent, in words. As for the experimental part:
Primary human foreskin fibroblasts at passage 2 (P2) were seeded into 12-well plates at 10000 cells/cm^2 and maintained for 24 hours in an atmosphere of 5% carbon dioxide and 4% oxygen in Dulbeccos Modified Eagles Medium (DMEM) supplemented with 10% foetal calf serum. After this time the cells were washed with serum free DMEM and then incubated in fresh serum free DMEM for a further 60 hours. The fibroblast monolayers were then washed again with serum free DMEM. […] This fibroblast conditioned medium was either analysed immediatedly or snap frozen in liquid nitrogen and stored at −70° C. for future analysis. The cells were then counted and data from the dot-blot analysis subsequently standardised to cell number.
Samples of conditioned medium from dermal fibroblasts treated with vehicle (as a control) or test reagents were supplemented with 20 mM dithiothreitol (1:10 dilution of 200 mM stock solution) and 0.1% sodium dodecylsulphate (1:100 dilution of 10% stock solution), mixed well and then incubated at 75° C. for 2 minutes. A standard for the assay was generated by serial dilution of neat fibroblast conditioned medium from fibroblasts seeded at 10000 cells/cm^2 in a 175 cm^2 flask and maintained in serum free DMEM as described above. Assay samples were subsequently applied in triplicate to a prewetted sheet of Immobilon-P transfer membrane using the 96-well Bio-Dot Apparatus from Bio-Rad as described in the manufacturers guidelines. Approximately 200 μl of medium was applied per well. The medium was allowed to filter through the membrane under gravity (30 minutes) after which the membrane was washed twice with PBS (200 μl). These PBS washes were allowed to filter through the membrane under gravity (2×15 minutes). The Bio-Dot apparatus was then attached to a vacuum manifold and a third and final PBS wash carried out under suction. The apparatus was disassembled, the membrane removed and quickly cut as required before being placed in blocking buffer overnight at 4° C. Membranes prepared for decorin analysis were blocked with 3% (w/v) bovine serum albumin (BSA)/ 0.1% (v/v) Tween 20 in phosphate buffered saline (PBS), whilst those for procollagen-I analysis were blocked with 5% (w/v) non fat dried milk powder/0.05% Tween 20 in PBS. The following day, the membranes were probed with 1:10000 dilution of primary antibodies to human decorin (rabbit polyclonal; Biogenesis) for 2 hours at room temperature. The membranes were subsequently washed with TBS/0.05% Tween 20 (3×5 minutes) and then incubated with 1:1000 dilution of ^125I-conjugated anti-rat or anti-rabbit F(ab′)2 fragments (Amersham) as required for 1 hour at room temperature. Following this the Immobilon strips were again washed with TBS/Tween 20 (3×5 minutes) before being allowed to dry in air at room temperature. The dried membranes were wrapped in cellophane and exposed to a Molecular Dynamics storage phosphor screen for 16-18 hours. At the end of this time the exposed screen was scanned by a phosphorimager (Molecular Dynamics Phosphorimager SF) using ImageQuant™ software. Dot intensity was assessed by computer-assisted image analysis using the quantification tools in ImageQuant™, standardised to cell number and the effects of various test reagents on decorin and procollagen-I synthesis were determined relative to a vehicle treated control value of 100 arbitrary units.

Test [1] has as its system intracellular adhesion molecules (ICAM). In words: ICAM-1 assay in fibroblasts, basal and PMA-induced. It is filed as cell-based, human. The conditions noted are these: FIG. 2. As for the experimental part: (§1) It is emphasized that the anti-inflammatory effects were determined by in vitro tests wherein the production of intracellular adhesion molecules (=ICAM) and Prostaglandin E2 (=PGE2) production by the human skin fibroblasts is measured after being induced by the inflammatory modulus phorbyl myristyl acetate (PMA). Effects on basal PGE2 levels in keratinocytes are also measured. A reduction of the levels of ICAM and PGE2 is indicative for the anti-inflammatory effect.
Primary human foreskin fibroblasts at passage 2 (P2) were seeded into 96-well plates at 10000 cells/well and maintained for 24 hours in an atmosphere of 5% carbon dioxide in Dulbeccos Modified Eagles Medium (DMEM) supplemented with 10% foetal calf serum. […] Phorbal myristate acetate (PMA) in ethanol/cell media ([…]) was added to the media and the cells incubated for a futher 24 hours. […] The fibroblasts/media were then analysed as described below immediately or snap frozen in liquid nitrogen and stored at −70° C. for future analysis. The cells were then counted to ensure no effect on cell number.
Media were discarded and cells washed with Dulbecco PBS. […] The soluble ICAM-1 was assessed with commercially available immunoenzymometric assay kit (R&D Systems). Concentrations of ICAM-1 in the samples were determined based on parallelly running standard curve.

Test [2] relates to Prostaglandin E2 (PGE2) production. In words: PMA-induced PGE2 production, fibroblast cell assay. The conditions noted are these: FIG. 1. The format is cell-based, human. As for the experimental part:
as §1
Primary human foreskin fibroblasts at passage 2 (P2) were seeded into 96-well plates at 10000 cells/well and maintained for 24 hours in an atmosphere of 5% carbon dioxide in Dulbeccos Modified Eagles Medium (DMEM) supplemented with 10% foetal calf serum. […] The fibroblasts/media were then analysed as described below immediately or snap frozen in liquid nitrogen and stored at −70° C. for future analysis. The cells were then counted to ensure no effect on cell number.
Volumes of 50 μl culture medium were taken for PGE2 assay after gently shaking the culture plate. PGE2 levels in the medium were determined with a Biotrak PGE2 immunoassay kit (Amersham, UK). The assay is based on the competition between unlabelled PGE2 in the sample and a fixed quantity of horseradish peroxidase labelled PGE2 for a limited amount of fixed PGE2 specific antibody. […]

Test [3] has as its system intracellular adhesion molecules (ICAM). Nature of the test: Glutathione (GSH) depletion model in fibroblasts (BSO and PMA), ICAM. It is filed as cell-based, human. The conditions noted are these: BSO and PMA treated fibroblasts, FIG. 3. As for the experimental part:
Primary human foreskin fibroblasts at passage 2 (P2) were seeded into 96-well plates at 10000 cells/well and maintained for 24 hours in an atmosphere of 5% carbon dioxide in Dulbeccos Modified Eagles Medium (DMEM) supplemented with 10% foetal calf serum. […] Phorbal myristate acetate (PMA) in ethanol/cell media ([…]) was added to the media and the cells incubated for a futher 24 hours. PMA represents an external stressor which induces oxidative stress and inflammatory responses in cells. The fibroblasts/media were then analysed as described below immediately or snap frozen in liquid nitrogen and stored at −70° C. for future analysis. The cells were then counted to ensure no effect on cell number.
Media were discarded and cells washed with Dulbecco PBS. To the washed cells, 150 μl 0.1% Triton X-100 (Sigma) was added for 3 minutes to extract ICAM from cell membrane. The extracts were transferred to Eppendoff centrifuge tubes and centrifuged at 1000 g for 2 min to remove cell debris. A volume of 100 μl supernatant was used for ICAM assay. The soluble ICAM-1 was assessed with commercially available immunoenzymometric assay kit (R&D Systems). Concentrations of ICAM-1 in the samples were determined based on parallelly running standard curve.
L-Buthionine sulfoximine (BSO, Sigma), a specific inhibitor of γ-glutamylcysteine synthetase, was used to deplete intracellular GSH levels. This depletion model is based on the natural degradation of GSH while synthesis is inhibited. BSO is added to the fibroblast cell media after 24 hours (0.25 mM), this is predissolved in DMSO (DMSO, final concentration <1%). In addition, where stated, the antioxidants Epigallocatechingallate (ECGC) and Quercetin were also added to the media after 24 h. The former was dissolved directly in the media, quercetin was initially dissolved in ethanol, this was then diluted 500 fold into the media.

For test [4], the system named is basal PGE2 levels in keratinocytes. Nature of the test: Keratinocyte PGE2 assay. It is filed as cell-based. The settings on record: 0.1 μM and 1 μM, 24 h. An excerpt:
The medium was then removed and assayed for the pro-inflammatory PGE2 content by Enzyme-linked immunoassay.

As for `O=C(O)c1cc(O)c(O)c(O)c1` [Gallic acid], the “Decorin (% of control)” value in the test with decorin (1 μg / ml) is given as 136.9 ± 4.2 % of control; in the test with decorin (2.5 μg / ml), 163.4 ± 6.5 % of control; in the test with decorin (5 μg / ml), 161.8 ± 6.6 % of control. Moreover, the “decorin levels in fibroblasts” value with decorin was “can also exert this effect”.

Turning to `CCCCCCCCCCC/C=C\CCCCC(=O)O` [Petroselinic acid], the “production of ICAM / ICAM response” value in test [1] (PMA-stimulated fibroblasts pre-incubated with 0.1, 1.0, 10 and 100 μM) was “reduction in ICAM; also recorded: significant decrease”. For the same molecule, the “production of ICAM” value in test [1] (basal condition (control), fibroblasts, 100 μM) is recorded as “reduction in ICAM”. The PGE2 response entry in test [2] (PMA treated cells pre-incubated with 0.1, 1.0, 10 and 100 μM) is reported as “significant decrease”. Also, the “inflammatory response as measured by PGE2 production” value in test [2] (PMA-challenged fibroblasts, 0.1 μM) is recorded as “dramatically reduces”. Besides, in the test on decorin, the “decorin levels in fibroblasts” value is reported as “boost decorin levels”. In addition, in test [3] (petroselinic acid alone 0.01 μM), the ICAM response result is on record as “no effect”. Moreover, the “basal levels of secreted PGE2” value is recorded as “significantly reduce” in test [4] (FIG. 5) and “reduced the basal levels” in test [4] (FIG. 5, listed as petroselinic acid).

As to `O=c1c(-c2ccc(O)cc2)coc2cc(O)ccc12` [diadzein], the “decorin levels in fibroblasts” value with decorin is on record as “can also exert this effect”.

Turning to `O=C(O[C@@H]1Cc2c(O)cc(O)cc2O[C@@H]1c1cc(O)c(O)c(O)c1)c1cc(O)c(O)c(O)c1` [EGCG, Epigallocatechingallate], the “Decorin (% of control)” value in the test with decorin (1 μg / ml) is 167.5 ± 11.8 % of control; with decorin (2.5 μg / ml), 188.6 ± 9.4 % of control; with decorin (5 μg / ml), 258.2 ± 6.1 % of control. For the same molecule, the “decorin levels in fibroblasts” value in the test on decorin is given as “can also exert this effect”. Besides, in test [3] (antioxidant alone 10 μM), the ICAM response result is “decrease the ICAM response”.

As for `O=c1c(-c2ccc(O)cc2)coc2cc(O)cc(O)c12` [genistein], the “decorin levels in fibroblasts” value in the test on decorin was “can also exert this effect”.

As to `O=c1c(O)c(-c2ccc(O)c(O)c2)oc2cc(O)cc(O)c12` [Quercetin], in test [3] (antioxidant alone 10 μM), the ICAM response result is reported as “decrease the ICAM response”.
